# Legend:
# [1] = Acute toxicity after single intraperitoneal administration; conditions: mouse, in vivo, ip, mice, 95% confidence limits 307-478
# Excerpt: The toxicity of MR 729 after single administration has been studied in mice, by injecting the product at different doses by the intraperitoneal route.
# [2] = target: T1, angiotensin converting enzyme (ACE) (Homo sapiens, UniProt P12821); assay: In vitro inhibition of plasma ACE in normal human serum (method of Summary et al.); assay type: biochemical; set-up: ID50 (ACE inhibition): unit not given here; conditions: for ACE activity: control 30; for % Enzymatic activity: control 100
# T1 construct: The plasma ACE has been determined by the method of Summary et al; from tissue; host or cells: normal human serum
# T1 sequence (P12821 30-1232 limits assumed): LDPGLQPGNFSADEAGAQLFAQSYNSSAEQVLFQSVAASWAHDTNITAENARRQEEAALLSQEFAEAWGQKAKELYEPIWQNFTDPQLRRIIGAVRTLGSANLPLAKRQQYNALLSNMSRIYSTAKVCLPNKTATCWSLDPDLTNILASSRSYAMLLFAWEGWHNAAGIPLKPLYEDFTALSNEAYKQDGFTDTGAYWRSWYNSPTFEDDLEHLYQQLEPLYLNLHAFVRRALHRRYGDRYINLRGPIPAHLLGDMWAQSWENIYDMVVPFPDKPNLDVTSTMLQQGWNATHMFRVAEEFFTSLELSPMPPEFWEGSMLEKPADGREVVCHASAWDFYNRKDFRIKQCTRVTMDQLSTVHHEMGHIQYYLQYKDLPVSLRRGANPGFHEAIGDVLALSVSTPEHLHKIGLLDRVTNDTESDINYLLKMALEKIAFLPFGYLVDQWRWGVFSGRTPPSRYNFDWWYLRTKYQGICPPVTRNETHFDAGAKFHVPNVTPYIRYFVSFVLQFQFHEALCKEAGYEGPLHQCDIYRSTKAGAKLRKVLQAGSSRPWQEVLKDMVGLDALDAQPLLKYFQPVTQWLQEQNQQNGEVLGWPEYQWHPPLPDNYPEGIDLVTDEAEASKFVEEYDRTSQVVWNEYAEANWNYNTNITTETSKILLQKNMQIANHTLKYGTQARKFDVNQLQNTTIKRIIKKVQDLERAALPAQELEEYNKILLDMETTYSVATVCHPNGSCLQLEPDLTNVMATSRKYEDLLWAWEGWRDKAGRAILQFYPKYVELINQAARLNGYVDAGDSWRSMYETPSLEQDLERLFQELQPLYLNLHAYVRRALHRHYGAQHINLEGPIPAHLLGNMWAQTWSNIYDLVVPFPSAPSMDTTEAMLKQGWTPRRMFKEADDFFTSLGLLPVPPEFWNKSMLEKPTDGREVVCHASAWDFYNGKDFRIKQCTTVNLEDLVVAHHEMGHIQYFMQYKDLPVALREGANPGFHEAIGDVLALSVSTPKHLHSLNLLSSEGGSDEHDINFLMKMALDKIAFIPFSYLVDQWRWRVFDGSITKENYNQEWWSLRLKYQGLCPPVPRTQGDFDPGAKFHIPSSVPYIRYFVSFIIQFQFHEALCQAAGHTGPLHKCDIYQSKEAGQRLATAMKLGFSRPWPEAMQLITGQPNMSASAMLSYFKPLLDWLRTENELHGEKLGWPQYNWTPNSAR
# Procedure: The plasma ACE has been determined by the method of Summary et al. (Clin. Sci. 50, 321, 1976) using histidyl-glycyl-histidine as a substrate.
# Tests have been carried out with 20 ml of normal human serum.
# A 0.1 M aqueous solution of MR 729 has been used.
# [3] = system: lipid infiltration experimentally induced by CCl4; assay: Intoxication by CCl4, liver lipids; assay type: in vivo; conditions: 12 hours fasting rats, oral route at different doses 2 hours before CCl4, sacrificed after 20 hours
# Procedure: The study has been carried out on 12 hours fasting rats; MR 729 was administered by oral route at different doses 2 hours before carbon tetrachloride. The animals were sacrificed after 20 hours and the liver was removed for the determination of liver lipids.
# [4] = system: ethionine-induced hepatic lipidic infiltration; assay: Intoxication by ethionine; assay type: in vivo; conditions: rat, daily oral administration during the 8 days preceding ethionine
# Excerpt: Also ethionine administration causes in the rat hepatic damages with respect to hepatocytes, occurring as a massive lipidic infiltration.
# [5] = system: hepatic damage caused by α-naphtyl-isothiocyanate; assay: Intoxication by α-naphtyl-isothiocyanate; assay type: in vivo; conditions: rat, contemporary oral treatment, 8 days α-naphtyl-isothiocyanate
# Excerpt: The hepatic damage caused by 8 days prolonged administration of α-naphtyl-isothiocyanate causes in the rate impairments in respect of cellular proliferation and hypertrophy of periportal spaces.
# liver regeneration = assay: Liver regeneration in partially hepathectomized rats; assay type: in vivo; conditions: treated just after operation, assessed after 4 days
# Excerpt: This study aimed to evidence whether MR 729 could affect the liver regeneration in partially hepathectomized rats.
# The animals have been treated with the product under study just after their operation; the regeneration degree has been assessed after 4 days.
# [6] = system: time of hexobarbital induced sleep; assay: Hexobarbital induced sleep in rats intoxicated by carbon tetrachloride; assay type: in vivo
# Procedure: Since the length of barbiturates induced sleep can be considered directly related to the metabolism rate of these drugs by the liver, it seemed appropiate to assess the influence of MR 729 on the time of hexobarbital induced sleep in rats intoxicated by carbon tetrachloride.
# MR 729 has been administered by oral route for 4 consecutive days, at different doses; the animals were then treated with CCl4 and, after 48 hours, with hexobarbital.
# [7] = system: pig's lyophilized gastric mucine; assay: In vitro mucolytic effect (method of Scheffner)
# Excerpt: It has been followed the method described by Scheffner (Ann. N.Y. Acad. Sci. 106, 298, 1963) using as a substrate pig's lyophilized gastric mucine.
# bronchial secretion = assay: In vivo mucolytic effect, sodium fluorescein method (Mawatari); conditions: rat, 250 mg/kg intraperitoneal, 5 minutes before sodium fluorescein, determined after 30 minutes
# Procedure: The effect of MR 729 on bronchial secretion has been studied in the rat with the method of sodium fluorescein described by Mawatari (Kagoshima Daigakeu Igakeu Zasshi, 27, 561, 1976).
# The product under study has been administered by intraperitoneal route 5 minutes before the solution of sodium fluoroscein, whose amount in the bronchial secretion has been determined after 30 minutes.
# [8] = target: T2, rat hepatic glutathione-peroxidase (GSH-P) (Rattus norvegicus, UniProt P04041); assay: In vitro inhibition of glutathione-peroxidase (glutathione/NADPH/GSH-reductase/cumene hydroperoxide system); assay type: biochemical; conditions: concentration 0.025 mM
# T2 construct: rat hepatic glutathione-peroxidase (GSH-P); from tissue; host or cells: rat liver
# T2 sequence (P04041 1-201): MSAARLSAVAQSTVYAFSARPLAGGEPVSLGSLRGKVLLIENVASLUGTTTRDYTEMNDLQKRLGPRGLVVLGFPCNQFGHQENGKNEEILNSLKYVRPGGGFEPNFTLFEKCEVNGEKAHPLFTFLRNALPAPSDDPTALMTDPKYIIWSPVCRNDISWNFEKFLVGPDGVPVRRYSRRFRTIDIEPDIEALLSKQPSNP
# Procedure: On the ground of these considerations and considering the above described pharmacological results, it has been assessed the efficacy of MR 729 in inhibiting in vitro the rat hepatic glutathione-peroxidase (GSH-P).
# It has been used the system glutathione/NADPH/GSH-reductase/cumene hydroperoxide. It was shown that MR 729 inhibits of about 63% the GSH-P, at a concentration of 0.025 mM. The administration of MR 729 allows therefore a saving of endogenous glutathione and a consequent decrease of free peroxides. Compound MR 729 can be administered by oral, parenteral, rectal, aerosolic route in various forms. The compositions below are described as an example: […]
# [9] = MR 729 20 μl (0.1 M aqueous solution)
# [10] = MR 729 50 μl (0.1 M aqueous solution)
# [11] = MR 729 100 μl (0.1 M aqueous solution)
compound,measurement,setting,value
"CC(S)C(=O)NCC(=O)N1CSCC1C(=O)O (stereo not shown) [MR 729, 3-[N-(2-mercapto-propionyl-amino-acetyl)]-tetrahydro-thiazolyl-4-carboxylic acid]",LD50,[1],395 mg/kg
same,ACE activity,[2]; [9],9 nmol/10 min/20 μl
same,% Enzymatic activity,[2]; [9],30%
same,ACE activity,[2]; [10],7 nmol/10 min/20 μl
same,% Enzymatic activity,[2]; [10],23%
same,ACE activity,[2]; [11],3 nmol/10 min/20 μl
same,% Enzymatic activity,[2]; [11],10%
same,ID50 (ACE inhibition),"[2]; in vitro, normal human serum, 0.1 M aqueous solution of MR 729",60
same,Inhibition of liver lipid infiltration induced by CCl4,[3],"able to inhibit, in a dose-dependent way, the lipid infiltration"
same,Antagonism of ethionine-induced hepatic lipidic infiltration,[4],"effective in antagonizing, with a dose-related intensity, the establishment of this pathology"
same,Histological examination of biliary ducts and parenchyma,[5],structure of biliary ducts in the treated animals was practically unchanged
same,Inhibition of hepatic pathology caused by α-naphtyl-isothiocyanate,[5],inhibits the development of such pathology
same,Effect on liver regeneration,liver regeneration,"acts in a positive way on the regeneration process, without however a clear dose-effect relationship"
same,Sleeping times,"[6]; oral 4 days, at highest doses",practically within normal limits
same,Inhibition of CCl4-induced prolongation of hexobarbital sleeping time,"[6]; oral route for 4 consecutive days at different doses, then CCl4, hexobarbital after 48 hours",inhibits the remarkable prolongation of sleeping time
same,Decrease of viscosity,"[7]; pig gastric mucine, according to the considered dose",17-35%
same,Mucolytic activity higher than equiponderant doses of N-acetyl-S-cysteine,"[7]; same experimental conditions, according to the doses",35-50%
same,Bronchosecretolytic activity relative to carboxymethylcysteine 500 mg/kg i.p.,bronchial secretion,fivefold higher activity
same,inhibition at 25 µM,[8],~63%

# Source: patent publication US4447419A, “Thiazole derivative, and pharmaceutical compositions containing it” (Ausonia Farmaceutici s.r.l., priority 1981, dated 1984)
